Assay results published in the supplement of paper PMC10949913.

How the values were obtained:
Conditions in all cases: 48 h
CU-ACC2 [1] = assay: AC50 viability; higher = less potent
How it was run: (§1)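 Library compounds were dispensed at 11 concentrations (23 nL each) onto three adrenocortical carcinoma cell lines in 1,536-well plates. Luminescence was recorded after 48 h using CellTiter-Glo, and signals were normalised per plate to vehicle and empty-well controls. Fitted concentration-response curves of inhibitory or non-responding classes only supplied the AC50 and area under the curve.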

NCI-H295R [2] = assay: AC50 viability; higher = less potent
How it was run: as §1

CU-ACC2 [3] = assay: area under concentration-response curve (viability) (AUC (a.u.)); higher = less active
How it was run: as §1

CU-ACC1 = assay: as above
How it was run: as §1

NCI-H295R [4] = assay: as above
How it was run: as §1

| SMILES | AC50 viability (CU-ACC2 [1]) [µM] | AC50 viability (NCI-H295R [2]) [µM] | area under concentration-response curve (CU-ACC2 [3]) | area under concentration-response curve (CU-ACC1) | area under concentration-response curve (NCI-H295R [4]) |
| --- | --- | --- | --- | --- | --- |
| CN1CCN(Cc2ccc(Nc3ncc(Cl)/c(=N\c4ccccc4[S+](=O)([O-])N(C)C)[nH]3)cc2)CC1 | 0.108 | 0.241 | 378 | 437 | 364 |
| Cc1cc(Nc2cc(N3CCN(C)CC3)nc(Sc3ccc(NC(=O)C4CC4)cc3)n2)[nH]n1 | 20.9 | 18.6 | 569 | 534 | 459 |
| Clc1ccc(C(Cn2ccnc2)OCc2c(Cl)cccc2Cl)c(Cl)c1 (stereo not given) | 18.6 | 20.9 | 525 | 371 | 473 |
| NC(=O)Nc1sc(-c2ccc(F)cc2)cc1C(N)=O | 8.33 | 5.9 | 559 | 511 | 485 |
| COc1ccc(-c2ccc3ncc4c(c3c2)n(-c2ccc(N3CCNCC3)c(C(F)(F)F)c2)c(=O)n4C)cn1 | 1.86 | 1.05 | 385 | 376 | 330 |
| CN1CCN(c2ccc(C(=O)Nc3n[nH]c4ccc(Cc5cc(F)cc(F)c5)cc34)c(NC3CCOCC3)c2)CC1 | 5.25 | 5.9 | 470 | 470 | 434 |
| CC1(COc2ccc3c(c2)ncn3-c2ccc3cccc(N4CCC(N)CC4)c3n2)COC1 | 13.2 | 16.6 | 556 | 545 | 439 |
| CCc1nc(C(N)=O)c(Nc2ccc(N3CCC(N4CCN(C)CC4)CC3)c(OC)c2)nc1NC1CCOCC1 | 13.2 | 4.17 | 477 | 533 | 500 |
| C[C@H]1CNC(=O)c2cnn3ccc(nc23)N[C@H](C)c2cc(F)ccc2O1 | 6.61 | 2.35 | 475 | 523 | 454 |
| N[S+](=O)([O-])OC[C@@H]1C[C@@H](n2ccc3c(N[C@H]4CCc5ccccc54)ncnc32)C[C@@H]1O | 0.468 | 1.66 | 360 | 467 | 468 |
| N#Cc1ccc2c(c1)CN([S+](=O)([O-])c1cccs1)[C@H](Cc1ccccc1)CN2Cc1cnc[nH]1 | 0.833 | 8.33 | 405 | 350 | 485 |
| N#Cc1cc2cc(CN3CCC(Nc4ncnc5sc(CC(F)(F)F)cc45)CC3)c(O)cc2n1Cc1cn[nH]c1 | 18.6 | 18.6 | 565 | 527 | 501 |
| NCC(=O)NC1=CC(=CN=C1)\C2=N\N/3C(=O)\C=C(/N=C3S2)N4CCNCC4 | 0.0934 | 0.00417 | 254 | 269 | 143 |
| Oc1cccc(-c2nc(N3CCOCC3)c3oc4ncccc4c3n2)c1 | 0.332 | 2.09 | 427 | 401 | 404 |
| COC1=C(OCCCN2CCOCC2)C=C3N=CC=C(OC4=CC=C(C=C4F)\C5=C\N=C(\NC6=CC=C(F)C=C6)N(C)C5=O)C3=C1 | 18.6 | 8.33 | 528 | 474 | 400 |
| CC[C@@H]([C@H](C)O)N1\N=C/N(C1=O)C2=CC=C(C=C2)N3CCN(CC3)C4=CC=C(OCC5CO[C@@](C5)(C[N]6C=NC=N6)C7=C(F)C=C(F)C=C7)C=C4 (stereo not given in full) | 7.42 | 8.33 | 447 | 403 | 423 |
| CCN(CC)CCNc1ccc(C)c2sc3ccccc3c(=O)c12 | 20.9 | 20.9 | 489 | 447 | 456 |
| C=C1C(=O)[C@@]23C(CC[C@@H]1[C@H]2O)[C@@]12CO[C@]3(O)[C@@H](O)[C@@H]1C(C)(C)CC[C@@H]2O (stereo not given in full) | 11.8 | 18.6 | 551 | 486 | 529 |
| CC[C@]12\C=C/CN3CC[C@]4([C@@H](N(C)C5=C4C=C(C(=C5)OC)[C@]6(CC7C[C@H](CN(C7)CC8=C6[NH]C9=C8C=CC=C9)C(C)(F)F)C(=O)OC)[C@](O)([C@@H]1OC(C)=O)C(=O)OC)[C@H]23 (stereo not given in full) | 5.9 | 1.48 | 533 | 468 | 394 |
| COC(=O)[C@@]12OC[C@]34[C@H]([C@@H](O)[C@@H]1O)[C@@]1(C)CC(=O)C(O)=C(C)[C@@H]1C[C@H]3OC(=O)[C@H](OC(=O)/C=C(\C)C(C)C)[C@@H]24 | 0.0417 | 0.263 | 280 | 251 | 316 |
| CN(C)Cc1ccc([S+](=O)([O-])n2ccc(/C=C/C(=O)NO)c2)cc1 | 9.34 | 16.6 | 496 | 461 | 465 |
